Laboratory results taken from paper PMC8315116 (Biochemistry, 2021).
Values joined by “and” are separate entries in the source; they are usually repeats but may differ in a detail not shown here. Equal values may be shown once. Read-outs that look alike come from different tables or passages of the source. One block for each compound: values may come before it.

Columns and labels:
human MAT2A [1] = biological target: T1, human MAT2A (Homo sapiens, UniProt P31153); test: ATP analogues as alternative substrates of MAT2A; assay type: biochemical; conditions: Figure 5C
human MAT2A [2] = biological target: T1, human MAT2A; test: HPLC assay of ATPase activity of MAT2A; assay type: biochemical; conditions: 80 μM AdoMet or 10 μM ammonium vanadate
human MAT2A [3] = biological target: T1, human MAT2A; test: Triphosphate hydrolysis by MAT2A; assay type: biochemical; conditions: for Km: read-out: Km of triphosphate hydrolysis
human MAT2A [4] = biological target: T1, human MAT2A; test: Product inhibition of MAT2A by AdoMet; assay type: biochemical; conditions: non-competitive
human MAT2A [5] = biological target: T1, human MAT2A; test: Thermal melt of MAT2A with Sypro Orange and ligands; conditions: 10 mM MgCl2
human MAT2A [6] = biological target: T1, human MAT2A; test: Inhibition of MAT2A by PNP or PPNP; conditions: non-competitive
human MAT2A [7] = biological target: T1, human MAT2A; conditions: varied substrate; fits to data of Fig. 2
human MAT2A [8] = biological target: T1, human MAT2A; test: Inhibition of MAT2A by ATP and triphosphate analogues; assay type: biochemical
[9] = 1 mM methionine and 200 μM ATP, NO = no significant inhibition observed

T1 sequence (P31153 whole entry): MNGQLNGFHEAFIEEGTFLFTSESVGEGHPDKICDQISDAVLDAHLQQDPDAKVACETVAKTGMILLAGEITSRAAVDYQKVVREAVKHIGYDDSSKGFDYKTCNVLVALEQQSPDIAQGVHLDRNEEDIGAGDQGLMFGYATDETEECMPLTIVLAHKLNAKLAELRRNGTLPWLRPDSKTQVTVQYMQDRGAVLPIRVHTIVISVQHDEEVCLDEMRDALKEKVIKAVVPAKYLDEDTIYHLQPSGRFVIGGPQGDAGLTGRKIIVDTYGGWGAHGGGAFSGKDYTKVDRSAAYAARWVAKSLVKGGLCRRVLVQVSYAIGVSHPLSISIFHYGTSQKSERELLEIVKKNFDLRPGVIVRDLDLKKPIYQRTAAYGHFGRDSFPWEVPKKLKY

Compound: Nc1ncnc2c1ncn2[C@@H]1O[C@H](COP(=O)(O)CP(=O)(O)OP(=O)(O)O)[C@@H](O)[C@H]1O [AMPCPP]
- production of orthophosphate from methionine and ATP analogue (human MAT2A [1]): phosphate formation

Compound: O=P(O)(O)NP(=O)(O)O [Imidodiphosphate]
- Ki (human MAT2A [6]; Ki, toward ATP): 14 ± 1 µM
- Ki (human MAT2A [6]; Ki, toward methionine): 17 ± 2 µM

Compound: O=P(O)(O)NP(=O)(O)NP(=O)(O)O [PNPNP, (α–β, β–γ)-diimido triphosphate]
- Ki (human MAT2A [8]; [9]): 0.12 ± 0.03 µM
- increased affinity compared to PPNP (human MAT2A [8]; PNPNP versus PPNP): ~10 fold
- Ki (human MAT2A [8]; read-out: Ki (inhibitor)): 0.115 µM
- shift of thermal melt temperature (Tm) compared to MAT2A alone (human MAT2A [5]): > 50 °C

Compound: O=P(O)(O)NP(=O)(O)OP(=O)(O)O [PPNP, Imidotriphosphate]
- Ki (human MAT2A [6]; toward ATP): 0.86 ± 0.06 µM
- Ki (human MAT2A [6]; toward methionine): 0.76 ± 0.07 µM

Compound: O=P(O)(O)OP(=O)(O)O [pyrophosphate]
- thermal stabilization of MAT2A, in words (human MAT2A [5]): large shifts in the Tm

Further lines, results first:

- effect on the ATPase reaction of MAT2A (human MAT2A [2]): inhibited
- activation of triphosphate hydrolysis (human MAT2A [3]; AdoMet at 150 μM versus no AdoMet): 3.5 fold
- Ki (human MAT2A [4]; with respect to ATP): 136 ± 7 µM
- Ki (human MAT2A [4]; with respect to methionine): 81 ± 10 µM
- thermal stabilization of MAT2A, in words (human MAT2A [5]): did little to increase MAT2A stability
Compound: C[S+](CC[C@H](N)C(=O)[O-])C[C@H]1O[C@@H](n2cnc3c(N)ncnc32)[C@H](O)[C@@H]1O (stereo partly drawn) [AdoMet, S-Adenosyl-L-methionine]

- shift of thermal melt temperature (Tm) compared to MAT2A alone (human MAT2A [5]): 1-3 °C
- kcat (human MAT2A [7]): 0.27 ± 0.01 s⁻¹
Compound: CSCC[C@H](N)C(=O)O [Methionine]

- Ki (human MAT2A [8]; [9]): 3.45 µM and 3.4 µM
- rate of triphosphate hydrolysis (human MAT2A [3]; AdoMet at 150 μM): 0.07 ± 0.01 s⁻¹
- kcat of triphosphate hydrolysis (human MAT2A [3]; AdoMet at 1 mM): 0.033 ± 0.003 s⁻¹
- Km (human MAT2A [3]; AdoMet at 150 μM): 6 ± 2 µM
- Km (human MAT2A [3]; without AdoMet present): 4 ± 2 µM
- rate of triphosphate hydrolysis (human MAT2A [3]; without AdoMet present): 0.020 ± 0.003 s⁻¹
- thermal stabilization of MAT2A, in words (human MAT2A [5]): large shifts in the Tm
Compound: O=P(O)(O)OP(=O)(O)OP(=O)(O)O [Triphosphate]

- thermal stabilization of MAT2A, in words (human MAT2A [5]): did little to increase MAT2A stability
Compound: phosphate
